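GI50 is the concentration that inhibits growth by half. TGI: total growth inhibition.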
Tests used:
Assay in all cases: DTP human tumour cell line panel, 384-well format
MCF7 breast = test system: MCF7 breast
MOLT-4 leukemia = test system: MOLT-4 leukemia
SNB-75 CNS = test system: SNB-75 CNS
A549 NSCLC = test system: A549 NSCLC
HS 578T breast = test system: HS 578T breast
HOP-62 NSCLC = test system: HOP-62 NSCLC
A498 renal = test system: A498 renal
SN12C renal = test system: SN12C renal
CCRF-CEM leukemia = test system: CCRF-CEM leukemia
U251 glioblastoma = test system: U251 glioblastoma
T-47D breast = test system: T-47D breast
BT-549 breast = test system: BT-549 breast
HCT-15 colon = test system: HCT-15 colon
SW-620 colon = test system: SW-620 colon
NCI-H322M lung = test system: NCI-H322M lung
HT29 colon = test system: HT29 colon
NCI-H226 lung = test system: NCI-H226 lung
OVCAR-3 ovarian = test system: OVCAR-3 ovarian
NCI-H522 lung = test system: NCI-H522 lung
M14 melanoma = test system: M14 melanoma
TK-10 renal = test system: TK-10 renal
SF-539 CNS = test system: SF-539 CNS
SR leukemia = test system: SR leukemia
PC-3 prostate = test system: PC-3 prostate
SK-MEL-28 melanoma = test system: SK-MEL-28 melanoma
MDA-MB-231 breast = test system: MDA-MB-231 breast
DU-145 prostate = test system: DU-145 prostate
RPMI-8226 leukemia = test system: RPMI-8226 leukemia
EKVX NSCLC = test system: EKVX NSCLC
KM12 colon = test system: KM12 colon
SF-268 CNS = test system: SF-268 CNS
SNB-19 CNS = test system: SNB-19 CNS
UACC-62 melanoma = test system: UACC-62 melanoma
NCI-H23 lung = test system: NCI-H23 lung
NCI-H460 NSCLC = test system: NCI-H460 NSCLC
LOX IMVI melanoma = test system: LOX IMVI melanoma
SK-OV-3 ovarian = test system: SK-OV-3 ovarian
K-562 leukemia = test system: K-562 leukemia
MDA-MB-435 melanoma = test system: MDA-MB-435 melanoma
IGROV1 ovarian = test system: IGROV1 ovarian
COLO 205 colon = test system: COLO 205 colon
MDA-MB-468 breast = test system: MDA-MB-468 breast
NCI/ADR-RES ovarian = test system: NCI/ADR-RES ovarian
MALME-3M melanoma = test system: MALME-3M melanoma
SK-MEL-5 melanoma = test system: SK-MEL-5 melanoma
CAKI-1 renal = test system: CAKI-1 renal
RXF 393 renal = test system: RXF 393 renal
786-0 renal = test system: 786-0 renal
HOP-92 NSCLC = test system: HOP-92 NSCLC
ACHN renal = test system: ACHN renal
UO-31 renal = test system: UO-31 renal
OVCAR-5 ovarian = test system: OVCAR-5 ovarian
HCC-2998 colon = test system: HCC-2998 colon
OVCAR-8 ovarian = test system: OVCAR-8 ovarian
OVCAR-4 ovarian = test system: OVCAR-4 ovarian
SF-295 CNS = test system: SF-295 CNS

CC(C)(C(=O)NCC(F)(F)C(F)(F)F)C(=O)N[C@@H]1C(=O)Nc2ccccc2-c2ccccc21
GI50 (MCF7 breast): 22 µM
TGI (MCF7 breast): > 100 µM
GI50 (MOLT-4 leukemia): 11.5 µM
TGI (MOLT-4 leukemia): 25.6 µM
GI50 (SNB-75 CNS): 63.6 µM
TGI (SNB-75 CNS): > 100 µM
GI50 (A549 NSCLC): 33.6 µM
TGI (A549 NSCLC): > 100 µM
GI50 (HS 578T breast): 32 µM
TGI (HS 578T breast): > 100 µM
GI50 (HOP-62 NSCLC): 74.6 µM
TGI (HOP-62 NSCLC): > 100 µM
GI50 (A498 renal): 47 µM
TGI (A498 renal): > 100 µM
GI50 (SN12C renal): > 100 µM
TGI (SN12C renal): > 100 µM
GI50 (CCRF-CEM leukemia): 18.6 µM
TGI (CCRF-CEM leukemia): 69.8 µM
GI50 (U251 glioblastoma): > 100 µM
TGI (U251 glioblastoma): > 100 µM
GI50 (T-47D breast): 6.31 µM
TGI (T-47D breast): 48.1 µM
GI50 (BT-549 breast): 39.2 µM
TGI (BT-549 breast): > 100 µM
GI50 (HCT-15 colon): 43.3 µM
TGI (HCT-15 colon): > 100 µM
GI50 (SW-620 colon): > 100 µM
TGI (SW-620 colon): > 100 µM
GI50 (NCI-H322M lung): > 100 µM
TGI (NCI-H322M lung): > 100 µM
GI50 (HT29 colon): 37.2 µM
TGI (HT29 colon): > 100 µM
GI50 (NCI-H226 lung): 45.8 µM
TGI (NCI-H226 lung): > 100 µM
GI50 (OVCAR-3 ovarian): 36.3 µM
TGI (OVCAR-3 ovarian): > 100 µM
GI50 (NCI-H522 lung): 42.4 µM
TGI (NCI-H522 lung): > 100 µM
GI50 (M14 melanoma): 89.2 µM
TGI (M14 melanoma): > 100 µM
GI50 (TK-10 renal): 88.7 µM
TGI (TK-10 renal): > 100 µM
GI50 (SF-539 CNS): > 100 µM
TGI (SF-539 CNS): > 100 µM
GI50 (SR leukemia): 23.3 µM
TGI (SR leukemia): > 100 µM
GI50 (PC-3 prostate): 41.2 µM
TGI (PC-3 prostate): > 100 µM
GI50 (SK-MEL-28 melanoma): 46.9 µM
TGI (SK-MEL-28 melanoma): > 100 µM
GI50 (MDA-MB-231 breast): 51.2 µM
TGI (MDA-MB-231 breast): > 100 µM
GI50 (DU-145 prostate): 55.9 µM
TGI (DU-145 prostate): > 100 µM
GI50 (RPMI-8226 leukemia): 18.8 µM
TGI (RPMI-8226 leukemia): 76.4 µM
GI50 (EKVX NSCLC): 29 µM
TGI (EKVX NSCLC): > 100 µM
GI50 (KM12 colon): 53.2 µM
TGI (KM12 colon): > 100 µM
GI50 (SF-268 CNS): > 100 µM
TGI (SF-268 CNS): > 100 µM
GI50 (SNB-19 CNS): 63.5 µM
TGI (SNB-19 CNS): > 100 µM
GI50 (UACC-62 melanoma): 20.4 µM
TGI (UACC-62 melanoma): > 100 µM
GI50 (NCI-H23 lung): 41.1 µM
TGI (NCI-H23 lung): > 100 µM
GI50 (NCI-H460 NSCLC): 46 µM
TGI (NCI-H460 NSCLC): > 100 µM
GI50 (LOX IMVI melanoma): > 100 µM
TGI (LOX IMVI melanoma): > 100 µM
GI50 (SK-OV-3 ovarian): 90.8 µM
TGI (SK-OV-3 ovarian): > 100 µM
GI50 (K-562 leukemia): 44.8 µM
TGI (K-562 leukemia): > 100 µM
GI50 (MDA-MB-435 melanoma): 92.7 µM
TGI (MDA-MB-435 melanoma): > 100 µM
GI50 (IGROV1 ovarian): 92.1 µM
TGI (IGROV1 ovarian): > 100 µM
GI50 (COLO 205 colon): 44.6 µM
TGI (COLO 205 colon): > 100 µM
TGI (MDA-MB-468 breast): 33.3 µM
GI50 (NCI/ADR-RES ovarian): 30 µM
TGI (NCI/ADR-RES ovarian): > 100 µM
GI50 (MALME-3M melanoma): 22.2 µM
TGI (MALME-3M melanoma): > 100 µM
GI50 (SK-MEL-5 melanoma): 39.1 µM
TGI (SK-MEL-5 melanoma): > 100 µM
GI50 (CAKI-1 renal): > 100 µM
TGI (CAKI-1 renal): > 100 µM
GI50 (RXF 393 renal): 27.3 µM
TGI (RXF 393 renal): > 100 µM
GI50 ([…]-0 renal): 58.5 µM
TGI (786-0 renal): > 100 µM
GI50 (HOP-92 NSCLC): 32.5 µM
TGI (HOP-92 NSCLC): > 100 µM
GI50 (ACHN renal): 54.8 µM
TGI (ACHN renal): > 100 µM
GI50 (UO-31 renal): 74.6 µM
TGI (UO-31 renal): > 100 µM
GI50 (OVCAR-5 ovarian): > 100 µM
TGI (OVCAR-5 ovarian): > 100 µM
GI50 (HCC-2998 colon): 24 µM
TGI (HCC-2998 colon): > 100 µM
GI50 (OVCAR-8 ovarian): 69.9 µM
TGI (OVCAR-8 ovarian): > 100 µM
GI50 (OVCAR-4 ovarian): 17.5 µM
TGI (OVCAR-4 ovarian): 76.3 µM
GI50 (SF-295 CNS): 52.5 µM
TGI (SF-295 CNS): > 100 µM
